Source: article PMC10412597, “Small molecule branched-chain ketoacid dehydrogenase kinase (BDK) inhibitors with opposing effects on BDK protein levels” (Nature Communications, 2023)

Legend:
Set-up in all cases: Cerep Bioprint off-target panel, functional receptor agonism or antagonism
Delta Opioid Receptor = target: T1, Delta Opioid Receptor (Homo sapiens, UniProt P41143); settings: agonist
T1 construct: gene OPRD1
Experimental: (§1) To discover a potent and selective BDK inhibitor, a subset of the Pfizer compound collection was screened. […] Off target activity was assessed in both CEREP and kinase panels (Supplementary Tables 2, 3).

Serotonin 5-HT2b = target: T2, Serotonin 5-HT2b (Homo sapiens, UniProt P41595); settings: agonist
T2 construct: gene HTR2B
Experimental: as §1

Mu Opioid = target: T3, Mu Opioid (Homo sapiens, UniProt P35372); settings: agonist
T3 construct: gene OPRM1
Experimental: as §1

Muscarinic 2 = target: T4, Muscarinic 2 (Homo sapiens, UniProt P08172)
T4 construct: gene CHRM2
T4 sequence (P08172 1-466): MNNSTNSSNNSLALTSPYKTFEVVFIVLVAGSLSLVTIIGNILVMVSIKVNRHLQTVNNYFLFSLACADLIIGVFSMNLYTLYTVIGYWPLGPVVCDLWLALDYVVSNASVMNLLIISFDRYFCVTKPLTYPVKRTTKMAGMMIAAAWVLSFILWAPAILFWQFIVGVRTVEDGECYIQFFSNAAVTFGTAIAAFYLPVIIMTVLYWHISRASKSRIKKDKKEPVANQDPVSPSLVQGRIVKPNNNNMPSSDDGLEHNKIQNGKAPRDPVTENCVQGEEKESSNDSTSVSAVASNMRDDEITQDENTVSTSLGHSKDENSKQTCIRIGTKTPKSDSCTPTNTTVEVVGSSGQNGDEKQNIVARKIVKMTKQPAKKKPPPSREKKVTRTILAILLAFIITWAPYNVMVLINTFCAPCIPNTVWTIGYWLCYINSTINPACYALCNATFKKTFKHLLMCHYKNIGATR
Experimental: as §1

Endothelin A = target: T5, Endothelin A (Homo sapiens, UniProt P25101); settings: agonist
T5 construct: gene EDNRA
Experimental: as §1

Angiotensin 1 = target: T6, Angiotensin 1 (Homo sapiens, UniProt P30556)
T6 construct: gene AGTR1
T6 sequence (P30556 1-359): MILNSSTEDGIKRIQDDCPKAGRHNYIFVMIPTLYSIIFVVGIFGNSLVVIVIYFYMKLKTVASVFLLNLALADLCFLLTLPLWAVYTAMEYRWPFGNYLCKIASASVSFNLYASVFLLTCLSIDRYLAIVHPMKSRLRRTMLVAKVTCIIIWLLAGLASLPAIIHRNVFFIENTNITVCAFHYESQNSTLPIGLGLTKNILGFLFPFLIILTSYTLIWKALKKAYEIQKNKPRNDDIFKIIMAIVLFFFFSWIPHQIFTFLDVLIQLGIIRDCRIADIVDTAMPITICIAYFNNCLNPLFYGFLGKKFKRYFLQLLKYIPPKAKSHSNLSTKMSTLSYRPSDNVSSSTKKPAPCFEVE
Experimental: as §1

Dopamine 2S = target: T7, Dopamine 2S (Homo sapiens, UniProt P14416)
T7 construct: gene DRD2; short isoform (2S)
Experimental: as §1

Adenosine A1 Receptor = target: T8, Adenosine A1 Receptor (Homo sapiens, UniProt P30542); settings: agonist
T8 construct: gene ADORA1
Experimental: as §1

[1] = target: T9, Adrenergic Alpha 2b Adrenoceptor (Homo sapiens, UniProt P18089)
T9 construct: gene ADRA2B
T9 sequence (P18089 1-450): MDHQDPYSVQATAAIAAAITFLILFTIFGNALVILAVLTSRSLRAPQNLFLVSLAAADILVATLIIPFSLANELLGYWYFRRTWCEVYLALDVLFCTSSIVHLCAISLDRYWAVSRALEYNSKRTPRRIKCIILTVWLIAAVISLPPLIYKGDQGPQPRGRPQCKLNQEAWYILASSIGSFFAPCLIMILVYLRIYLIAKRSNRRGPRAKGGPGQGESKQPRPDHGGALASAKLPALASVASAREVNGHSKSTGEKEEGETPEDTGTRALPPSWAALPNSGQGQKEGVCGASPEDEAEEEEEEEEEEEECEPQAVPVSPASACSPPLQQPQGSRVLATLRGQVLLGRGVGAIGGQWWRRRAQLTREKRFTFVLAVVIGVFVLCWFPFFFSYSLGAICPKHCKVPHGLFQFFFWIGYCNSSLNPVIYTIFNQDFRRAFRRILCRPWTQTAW
Experimental: as §1

Mu Opiod = target: T10, Mu Opiod (Homo sapiens, UniProt P35372); settings: antagonist
T10 construct: gene OPRM1
Experimental: as §1

[2] = target: T11, Adrenergic Beta 1 Adrenoceptor (Homo sapiens, UniProt P08588)
T11 construct: gene ADRB1
Experimental: as §1

T7 sequence (P14416 whole entry, canonical isoform): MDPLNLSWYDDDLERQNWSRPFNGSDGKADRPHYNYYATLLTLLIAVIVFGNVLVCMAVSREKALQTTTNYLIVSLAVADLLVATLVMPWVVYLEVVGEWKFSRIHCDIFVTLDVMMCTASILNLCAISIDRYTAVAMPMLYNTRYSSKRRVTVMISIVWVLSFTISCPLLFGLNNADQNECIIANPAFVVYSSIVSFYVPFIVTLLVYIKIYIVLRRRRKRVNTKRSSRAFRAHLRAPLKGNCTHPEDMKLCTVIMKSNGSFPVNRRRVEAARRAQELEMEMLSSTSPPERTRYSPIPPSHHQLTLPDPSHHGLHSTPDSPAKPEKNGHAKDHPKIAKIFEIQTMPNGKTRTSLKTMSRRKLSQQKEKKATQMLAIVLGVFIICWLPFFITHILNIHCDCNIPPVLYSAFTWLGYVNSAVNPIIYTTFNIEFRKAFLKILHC
T11 sequence (P08588 whole entry): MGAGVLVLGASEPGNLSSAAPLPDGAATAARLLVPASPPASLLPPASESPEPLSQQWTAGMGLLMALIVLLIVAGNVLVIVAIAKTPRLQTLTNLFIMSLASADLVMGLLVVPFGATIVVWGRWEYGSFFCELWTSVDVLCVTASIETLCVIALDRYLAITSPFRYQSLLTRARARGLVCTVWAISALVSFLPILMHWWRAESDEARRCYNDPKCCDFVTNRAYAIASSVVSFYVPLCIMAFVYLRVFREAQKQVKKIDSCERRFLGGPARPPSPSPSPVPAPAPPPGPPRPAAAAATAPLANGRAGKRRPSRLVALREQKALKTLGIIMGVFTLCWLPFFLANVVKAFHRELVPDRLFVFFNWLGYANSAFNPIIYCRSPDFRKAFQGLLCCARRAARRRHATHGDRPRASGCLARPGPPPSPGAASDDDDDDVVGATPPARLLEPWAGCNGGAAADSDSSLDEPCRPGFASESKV
T5 sequence (P25101 whole entry): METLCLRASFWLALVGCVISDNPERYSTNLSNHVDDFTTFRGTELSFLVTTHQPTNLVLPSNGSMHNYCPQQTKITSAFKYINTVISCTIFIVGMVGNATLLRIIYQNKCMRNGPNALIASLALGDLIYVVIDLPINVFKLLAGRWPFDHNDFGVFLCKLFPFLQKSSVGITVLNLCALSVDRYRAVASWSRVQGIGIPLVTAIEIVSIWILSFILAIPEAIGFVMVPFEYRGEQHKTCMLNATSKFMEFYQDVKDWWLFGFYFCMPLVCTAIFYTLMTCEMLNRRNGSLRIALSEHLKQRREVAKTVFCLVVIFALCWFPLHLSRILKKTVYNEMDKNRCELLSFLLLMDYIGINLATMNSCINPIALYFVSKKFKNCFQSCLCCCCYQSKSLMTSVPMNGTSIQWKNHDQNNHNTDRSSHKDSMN
T1 sequence (P41143 whole entry): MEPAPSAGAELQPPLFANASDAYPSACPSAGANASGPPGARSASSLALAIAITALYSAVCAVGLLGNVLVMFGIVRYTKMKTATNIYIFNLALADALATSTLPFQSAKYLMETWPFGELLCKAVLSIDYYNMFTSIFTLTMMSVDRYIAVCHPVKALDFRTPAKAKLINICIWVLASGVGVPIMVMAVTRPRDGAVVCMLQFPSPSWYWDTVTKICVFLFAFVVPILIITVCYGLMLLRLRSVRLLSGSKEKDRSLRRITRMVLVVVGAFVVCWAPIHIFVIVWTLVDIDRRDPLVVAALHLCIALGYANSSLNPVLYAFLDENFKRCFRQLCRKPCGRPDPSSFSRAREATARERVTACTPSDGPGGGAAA
T2 sequence (P41595 whole entry): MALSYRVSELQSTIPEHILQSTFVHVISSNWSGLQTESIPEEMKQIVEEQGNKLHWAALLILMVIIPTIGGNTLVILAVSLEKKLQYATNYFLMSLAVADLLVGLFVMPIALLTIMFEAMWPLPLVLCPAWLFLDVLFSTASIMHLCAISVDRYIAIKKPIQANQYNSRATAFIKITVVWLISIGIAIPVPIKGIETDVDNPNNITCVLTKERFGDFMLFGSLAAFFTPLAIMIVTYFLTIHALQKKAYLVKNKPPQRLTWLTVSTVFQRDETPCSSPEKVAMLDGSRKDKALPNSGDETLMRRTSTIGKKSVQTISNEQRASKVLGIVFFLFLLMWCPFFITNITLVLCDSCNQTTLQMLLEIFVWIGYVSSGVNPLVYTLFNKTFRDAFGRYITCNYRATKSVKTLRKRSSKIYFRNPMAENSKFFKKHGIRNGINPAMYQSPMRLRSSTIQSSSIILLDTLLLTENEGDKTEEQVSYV
T8 sequence (P30542 whole entry): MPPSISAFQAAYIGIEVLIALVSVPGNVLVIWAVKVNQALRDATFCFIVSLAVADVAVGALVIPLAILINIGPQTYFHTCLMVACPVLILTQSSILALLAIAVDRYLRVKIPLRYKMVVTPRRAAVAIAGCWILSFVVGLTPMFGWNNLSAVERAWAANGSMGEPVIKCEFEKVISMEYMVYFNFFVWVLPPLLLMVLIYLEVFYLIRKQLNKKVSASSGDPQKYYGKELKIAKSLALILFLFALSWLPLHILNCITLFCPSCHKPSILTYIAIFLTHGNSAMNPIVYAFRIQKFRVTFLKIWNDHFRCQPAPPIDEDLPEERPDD
T3 sequence (P35372 whole entry): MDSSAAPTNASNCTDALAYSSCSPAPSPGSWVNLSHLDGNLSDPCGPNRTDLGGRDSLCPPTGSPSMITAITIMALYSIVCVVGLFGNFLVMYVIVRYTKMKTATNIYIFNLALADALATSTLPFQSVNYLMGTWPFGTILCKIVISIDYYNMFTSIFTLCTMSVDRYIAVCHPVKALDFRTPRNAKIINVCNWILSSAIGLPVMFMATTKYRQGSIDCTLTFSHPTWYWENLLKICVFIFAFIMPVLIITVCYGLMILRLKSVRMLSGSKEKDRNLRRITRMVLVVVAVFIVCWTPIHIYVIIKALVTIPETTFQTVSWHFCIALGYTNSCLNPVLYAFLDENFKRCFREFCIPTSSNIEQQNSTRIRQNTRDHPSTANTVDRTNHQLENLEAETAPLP
T10 sequence (P35372 whole entry): as above

## O=C(O)c1sc2cc(F)sc2c1Cl [PF-07208254, 3-chloro-5-fluorothieno[3,2-b]thiophene-2-carboxylic acid]
Delta Opioid Receptor; 100 µM
  % (agonism) PF-07208254: -2%
Serotonin 5-HT2b; 100 µM
  % (agonism) PF-07208254: -5%
Mu Opioid; 100 µM
  % (agonism) PF-07208254: 16%
Muscarinic 2; 100 µM, agonist
  % (agonism) PF-07208254: 39%
Muscarinic 2; 100 µM, antagonist
  % Inhibition (antagonism) PF-07208254: -7%
Endothelin A; 100 µM
  % (agonism) PF-07208254: 4%
Angiotensin 1; 100 µM, agonist
  % (agonism) PF-07208254: 3%
Angiotensin 1; 100 µM, antagonist
  % Inhibition (antagonism) PF-07208254: 18%
Dopamine 2S; 100 µM, agonist
  % (agonism) PF-07208254: -29%
Dopamine 2S; 100 µM, antagonist
  % Inhibition (antagonism) PF-07208254: -7%
Adenosine A1 Receptor; 100 µM
  % (agonism) PF-07208254: 0%
[1]; 100 µM, agonist
  % (agonism) PF-07208254: -4%
[1]; 100 µM, antagonist
  % Inhibition (antagonism) PF-07208254: -2%
Mu Opiod; 100 µM
  % Inhibition (antagonism) PF-07208254: 2%
[2]; 100 µM, agonist
  % (agonism) PF-07208254: 2%
[2]; 100 µM, antagonist
  % Inhibition (antagonism) PF-07208254: 8%

## CCC1(COc2ccc(-c3csc(-c4ccccc4C(=O)O)n3)cn2)CC1 [PF-07247685, 2-(4-{6-[(1-ethylcyclopropyl)methoxy]pyridin-3-yl}-1,3-thiazol-2-yl)benzoic acid]
Delta Opioid Receptor; 10 µM
  % (agonism) PF-07247685: -1%
Serotonin 5-HT2b; 10 µM
  % (agonism) PF-07247685: -5%
Mu Opioid; 10 µM
  % (agonism) PF-07247685: -3%
Muscarinic 2; 10 µM, agonist
  % (agonism) PF-07247685: 3%
Muscarinic 2; 10 µM, antagonist
  % Inhibition (antagonism) PF-07247685: 2%
Endothelin A; 10 µM
  % (agonism) PF-07247685: -4%
Angiotensin 1; 10 µM, agonist
  % (agonism) PF-07247685: -8%
Angiotensin 1; 10 µM, antagonist
  % Inhibition (antagonism) PF-07247685: 5%
Dopamine 2S; 10 µM, agonist
  % (agonism) PF-07247685: -17%
Dopamine 2S; 10 µM, antagonist
  % Inhibition (antagonism) PF-07247685: -7%
Adenosine A1 Receptor; 10 µM
  % (agonism) PF-07247685: 0%
[1]; 10 µM, agonist
  % (agonism) PF-07247685: -1%
[1]; 10 µM, antagonist
  % Inhibition (antagonism) PF-07247685: -1%
Mu Opiod; 10 µM
  % Inhibition (antagonism) PF-07247685: -3%
[2]; 10 µM, agonist
  % (agonism) PF-07247685: 6%
[2]; 10 µM, antagonist
  % Inhibition (antagonism) PF-07247685: 27%
